How the values were obtained:
[1] = Therapeutic index (CC50/EC50) for RSV infected Hep2 cells; type: cell-based, HEp-2; settings: human, read-out: Ratio CC50/EC50
[2] = tested on: Respiratory syncytial virus; experiment: Antiviral activity against RSV Long strain in human Hep2 cells; type: functional, organism-based; settings: HEp-2
HEp-2 = experiment: Cytotoxicity against human Hep2 cells infected with RSV Long strain; type: functional
Cotton rat [3] = experiment: Efficacy in cotton rat measured as reduction in log TCID50 of RSV per gram of lung at 0.5 mg/mL; type: functional, Sigmodon
Cotton rat [4] = experiment: Efficacy in cotton rat measured as reduction in log TCID50 of RSV per gram of lung at 1.0 mg/mL; type: functional, Sigmodon
Cotton rat [5] = experiment: Efficacy in cotton rat measured as reduction in log TCID50 of RSV per gram of lung at 0.2 mg/mL; type: functional, Sigmodon
Cotton rat [6] = experiment: Efficacy in cotton rat measured as reduction in log TCID50 of RSV per gram of lung at 2.0 mg/mL; type: functional, Sigmodon
Cotton rat [7] = experiment: Efficacy in cotton rat measured as reduction in log TCID50 of RSV per gram of lung at 1.6 mg/mL; type: functional, Sigmodon
Mus musculus [8] = experiment: Efficacy in BALB/c mouse measured as reduction in log TCID50 of RSV per gram of lung at 120 mg/kg, sc; type: functional; settings: route subcutaneous
Cotton rat [9] = experiment: Efficacy in cotton rat measured as reduction in log TCID50 of RSV per gram of lung at 90 mg/kg, ip; type: functional, Sigmodon; settings: route intraperitoneal
Mus musculus [10] = experiment: Efficacy in BALB/c mouse measured as reduction in log TCID50 of RSV per gram of lung at 90 mg/kg, sc; type: functional; settings: route subcutaneous
Cotton rat [11] = experiment: Efficacy in cotton rat measured as reduction in log TCID50 of RSV per gram of lung at 0.67 mg/mL; type: functional, Sigmodon
Cotton rat [12] = experiment: Efficacy in cotton rat measured as reduction in log TCID50 of RSV per gram of lung at 1.33 mg/mL; type: functional, organism-based; settings: Sigmodon
Cotton rat [13] = experiment: Efficacy in cotton measured as reduction in log TCID50 of RSV per gram of lung rat at 0.05 mg/mL; type: functional, Sigmodon
Cotton rat [14] = experiment: Efficacy in cotton rat measured as reduction in log TCID50 of RSV per gram of lung at 0.01 mg/mL; type: functional, Sigmodon

SMILES	selectivity ratio [1]	EC50 [2] [nM]	CC50 (HEp-2) [nM]	other results
CC(C)CCn1c(Cn2c(=O)n(Cc3nn[nH]n3)c3ccccc32)nc2ccccc21	> 420	500	> 210000	–
CC(C)CCn1c(Cn2c(=O)n(CC(=O)NS(=O)(=O)c3ccccc3)c3ccccc32)nc2ccccc21	12	1210	14100	–
CCOP(=O)(O)c1ccc(Cn2c(=O)n(Cc3nc4ccccc4n3CCC(C)C)c3ccccc32)cc1	> 3350	48	> 180000	–
O=C(O)c1ccc(Cn2c(=O)n(Cc3nc4ccccc4n3CCCCO)c3ccccc32)cc1	> 49000	4	> 196000	–
CC(C)CCn1c(Cn2c(=O)n(CCCc3nnn[nH]3)c3ccccc32)nc2ccccc21	158	235	37100	–
CN(C)CCCn1c(Cn2c(O)nc3ccccc32)nc2ccccc21	53	1660	89100	–
CC(C)CCn1c(Cn2c(=O)n(Cc3ccc(C(=O)N[C@@H](CP(=O)(O)O)C(=O)O)cc3)c3ccccc32)nc2ccccc21	> 3350	34	> 114000	Efficacy (Cotton rat [3]): 2.43
COc1ccc(Cn2c(=O)n(Cc3nc4ccccc4[nH]3)c3ccccc32)cc1	123	333	41100	–
CC(C)CCn1c(Cn2c(=O)n(CCC(=O)O)c3ccccc32)nc2ccccc21	6810	15	102000	–
CC(C)CCn1c(Cn2c(=O)n(CCCCC(=O)O)c3ccccc32)nc2ccccc21	2060	8	16500	–
O=c1n(Cc2nc3ccccc3[nH]2)c2ccccc2n1Cc1ccccc1S(=O)(=O)O	9970	13	130000	–
CC(C)CCn1c(Cn2c(=O)n(Cc3ccc(Cn4c(=O)ccn(CC(=O)N[C@@H](CC(=O)O)C(=O)O)c4=O)cc3)c3ccccc32)nc2ccccc21	> 13200	8	> 106000	Efficacy (Cotton rat [4]): 1.83; Efficacy (Cotton rat [5]): 3.22
CC(C)CCn1c(Cn2c(=O)n(Cc3ccc(C(=O)N[C@@H](CC(=O)O)C(=O)O)cc3)c3ccccc32)nc2ccccc21	> 28800	5	> 144000	Efficacy (Cotton rat [6]): 2.6
C=C(C)n1c(=O)n(Cc2nc3ccccc3n2Cc2nn[nH]n2)c2ccccc21	21	8440	181000	–
CC(C)CCn1c(Cn2c(=O)n(Cc3ccc(C(=O)O)cc3)c3ccccc32)nc2ccccc21	2480	11	27300	–
Oc1nc2ccccc2n1Cc1nc2ccccc2n1CCn1cnnn1	77	1200	92000	–
CC(C)CCn1c(Cn2c(=O)n(Cc3ccccc3C(=O)O)c3ccccc32)nc2ccccc21	1430	11	15700	–
CC(C)CCn1c(Cn2c(=O)n(Cc3ccccc3S(=O)(=O)O)c3ccccc32)nc2ccccc21	> 2710	7	> 19000	Efficacy (Cotton rat [7]): 2.25
Cn1c(=O)n(Cc2nc3ccccc3[nH]2)c2ccccc21	> 340	593	> 202000	–
O=C(O)c1cccc(Cn2c(=O)n(Cc3nc4ccccc4[nH]3)c3ccccc32)c1	6430	7	> 194000	–
CC(C)CCn1c(Cn2c(=O)n(CC(=O)NS(C)(=O)=O)c3ccccc32)nc2ccccc21	247	613	152000	–
CC(C)n1c(=O)n(Cc2nc3ccccc3n2CCc2noc(O)n2)c2ccccc21	3540	21	75400	Efficacy (Mus musculus [8]): 2.55; Efficacy (Cotton rat [3]): 2.1
O=c1n(Cc2ccc(P(=O)(O)O)cc2)c2ccccc2n1Cc1nc2ccccc2[nH]1	> 473	368	> 174000	–
CC(C)CCn1c(Cn2c(=O)n(CC(=O)O)c3ccccc32)nc2ccccc21	–	163	194000	–
O=C(O)Cn1c(=O)n(Cc2nc3ccccc3n2CCCO)c2ccccc21	119	1930	229000	–
CC(C)CCn1c(Cn2c(=O)n(CCCS(=O)(=O)O)c3ccccc32)nc2ccccc21	3010	38	114000	–

SMILES	selectivity ratio [1]	EC50 [2] [nM]	CC50 (HEp-2) [nM]	other results
CC(C)CCn1c(Cn2c(=O)n(CCCC(=O)O)c3ccccc32)nc2ccccc21	1840	75	138000	–
CC(C)CCn1c(Cn2c(=O)n(CCCCc3nnn[nH]3)c3ccccc32)nc2ccccc21	993	15	14900	–
CC(C)CCn1c(Cn2c(=O)n(CCCCCc3nnn[nH]3)c3ccccc32)nc2ccccc21	6920	13	90000	Activity (Cotton rat [6]; Sigmodon): Toxic
Oc1nc2ccccc2n1Cc1nc2ccccc2[nH]1	226	1010	228000	–
CC(C)CCn1c(Cn2c(=O)n(Cc3ccc(CP(=O)(O)O)cc3)c3ccccc32)nc2ccccc21	55	51	2800	–
C=C(C)n1c(=O)n(Cc2nc3ccccc3n2CCc2nn[nH]n2)c2ccccc21	14600	–	–	–
NC(=O)c1ncn([C@@H]2O[C@H](CO)[C@@H](O)[C@H]2O)n1 [RIBAVIRIN]	–	–	–	Efficacy (Cotton rat [9]): 2.5; Efficacy (Mus musculus [10]): 1.86
O=C(O)c1ccc(Cn2c(=O)n(Cc3nc4ccccc4n3CCCO)c3ccccc32)cc1	4280	49	210000	–
O=C(O)c1ccc(Cn2c(=O)n(Cc3nc4ccccc4[nH]3)c3ccccc32)cc1	5400	14	75500	Efficacy (Cotton rat [11]): 3.6
C=C(C)n1c(=O)n(Cc2nc3ccccc3n2CCc2nnn[nH]2)c2ccccc21	–	8	> 249000	Activity (Cotton rat [12]): Toxic
O=c1n(Cc2ccccc2)c2ccccc2n1Cc1nc2ccccc2[nH]1	1130	114	129000	–
CC(C)CCn1c(Cn2c(=O)n(Cc3cc(C(=O)O)cc(C(=O)O)c3)c3ccccc32)nc2ccccc21	> 256	656	> 168000	–
CC(C)CCn1c(Cn2c(=O)n(Cc3ccccc3C(=O)N[C@@H](CC(=O)O)C(=O)O)c3ccccc32)nc2ccccc21	≥ 25700	6	154000	–
O=c1n(Cc2ccc(O)cc2)c2ccccc2n1Cc1nc2ccccc2[nH]1	932	63	58700	–
CC(C)CCn1c(Cn2c(=O)n(CCN(C)C)c3ccccc32)nc2ccccc21	25	400	10000	–
CC(C)CCn1c(Cn2c(=O)n(Cc3ccc(Cn4c(=O)ccn(CC(=O)O)c4=O)cc3)c3ccccc32)nc2ccccc21	> 53000	3	> 159000	–
O=C(O)CN(CC(=O)O)C(=O)c1ccc(Cn2c(=O)n(Cc3nc4ccccc4n3CCCCO)c3ccccc32)cc1	1960	57	112000	–
O=C(O)Cn1c(=O)n(Cc2nc3ccccc3[nH]2)c2ccccc21	133	155	20600	–
C=C(C)n1c(=O)n(Cc2nc3ccccc3n2CCCN(C)C)c2ccccc21	265	75	19900	–
CC(C)n1c(=O)n(Cc2nc3ccccc3n2CCc2nnn[nH]2)c2ccccc21	11800	15	177000	–
CC(C)CCn1c(Cn2c(=O)n(CCCN(C)C)c3ccccc32)nc2ccccc21	18	292	5300	–
CC(C)CCn1c(Cn2c(=O)n(Cc3ccc(P(=O)(O)O)cc3)c3ccccc32)nc2ccccc21	3000	27	> 175000	Efficacy (Cotton rat [13]): 4; Efficacy (Cotton rat [14]): 4.4; Efficacy (Cotton rat [5]): 3.5; Efficacy (Cotton rat [6]): 2.1
CC(C)CCn1c(Cn2c(=O)n(CCCCCC(=O)O)c3ccccc32)nc2ccccc21	1100	15	16500	–
CC(C)CCn1c(Cn2c(=O)n(Cc3cccc(C(=O)O)c3)c3ccccc32)nc2ccccc21	1070	10	10700	–
CC(C)CCn1c(Cn2c(=O)n(CCCCS(=O)(=O)O)c3ccccc32)nc2ccccc21	56	52	2900	–
C=C(C)n1c(=O)n(Cc2nc3ccccc3n2CCCc2nnn[nH]2)c2ccccc21	> 23	14	> 330	–

— ChEMBL document CHEMBL1138147, “Respiratory syncytial virus fusion inhibitors. Part 3: Water-soluble benzimidazol-2-one derivatives with antiviral activity in vivo” (Bioorg Med Chem Lett, 2006)
